From patent US5656743A, “Oligonucleotide modulation of cell growth” (priority 1994, dated 1997)
“Also recorded” adds a separate entry of the source.

Experiments:
[1] = test system: HeLa S3 cells (human epithelioid cervix carcinoma); experiment: Cell growth of HeLa cells by counting attached cells after oligonucleotide treatment; assay type: cell-based; conditions: for cell growth inhibitory effect: HeLa cells (FIG. 1A), 0.1-0.5 μM oligonucleotide + 10 μg/ml DOTMA, ±SD; for cell growth inhibitory effect / inhibition of cell growth (in words): serum-free, 4 h; for log HeLa cell kill: 2 days after treatment, oligonucleotide complexed with DOTMA 4 h; for inhibition of cell growth (in words): oligonucleotide + 10 μg/ml DOTMA
[2] = test system: human LOX ascites tumor; experiment: Tumor growth inhibition, i.p. LOX ascites tumor in nude mice; assay type: in vivo; conditions: complexed with DOTMA
Description: Intraperitoneally (i.p.) transplanted, exponentially growing LOX ascites tumor cells were harvested from nude mice, washed and resuspended in serum-free RPMI medium. A total of 2×10^6 viable cells (determined by trypan blue exclusion) in 0.5 ml RPMI medium were injected i.p. into the homozygous mutant, HSd: Athymic Nude-nu male mice (Sambrook, et al., 1989). Treatment was started 1 day after the i.p. injection of tumor cells and the oligonucleotide in the presence of DOTMA was given i.p. on days 1, 3 and 5. Tumor growth was followed by daily inspection of the animals. The experiments were terminated when the ascite tumors were visible both in controls and treated animals, generally by day 14. All animal experimentation followed the guidelines of the Baylor College of Medicine and New York Academy of Sciences.
The tumor growth inhibitory effect of antisense oligonucleotide SEQ ID NO: 9 was studied on i.p. injected LOX tumor cells. […] No tumor growth inhibition or other toxic effects occurred after treatment with PBS alone or DOTMA in PBS (1-10 mg/kg bodyweight).

[3] = Cellular uptake, efflux and localization of 32P-labeled oligonucleotide; assay type: in vitro ADME
Description: (§1) Phosphorothioate oligonucleotide SEQ ID NO: 9 was labeled with [γ^32 P]ATP by T4 polynucleotide kinass to analyze cellular uptake, efflux and stability in the presence or absence of DOTMA. […] 5-15 fold more of oligonucleotide SEQ ID NO: 9 was associated with the cells in the presence of DOTMA than in its absence. 60% of the oligonucleotide localized to the nuclei after 4 hours treatment in the presence of DOTMA, approximately 50% remained in the cells 20 hours post-treatment. The stability of phosphorothioate oligonucleotides was much greater than the phosphodiester oligonucleotides. Only 40% degradation of the phosphorothioate oligonucleotide was found after 24 hours in 10% serum-containing medium. More than 50% of the phosphodiester oligonucleotide was degraded within 1 hour. DOTMA enhanced the activity of antisense oligonucleotide phosphorothioate.

[4] = assay type: in vitro ADME; conditions: after 24 hours in 10% serum-containing medium
Description: as §1

[5] = test system: HeLa and LOX human tumor cell lines; experiment: Nuclear aberrations, mitoses and cell growth in HeLa and LOX cells by light and fluorescence microscopy; assay type: cell-based; conditions: 0.2 or 0.4 μM + DOTMA 4 h
Description: HeLa and LOX human tumor cell lines were analyzed by light and fluorescence microscopy after 4 hours treatment with 0.2 or 0.4 μM antisense (SEQ ID NO: 9) or sense (SEQ ID NO: 16) oligonucleotide with DOTMA. […] Nucleolar unraveling and fragmentation and chromatin alterations were observed. In some LOX cells chromatin was condensed as in prophase arrest. In HeLa cells, chromatin was condensed and compacted. Decreased mitoses correlated with decreased ^3 H-thymidine incorporation. Cell growth decreased 70-80%.

[6] = test system: LOX cells (human amelanotic melanoma); experiment: Cell growth of LOX cells by counting attached cells after oligonucleotide treatment; assay type: cell-based
Description: (§2) HeLa S3 (ATCC CCL 2.2, human epithelioid cervix carcinoma) cells were subcultured in Dulbecco's modified Eagle Medium (D-MEM) (GIBCO BRL), supplemented with 10% fetal bovine serum (FBS) (GIBCO BRL) and 1% penicillin-streptomycin liquid (100 000 IU/ml penicillin G sodium, 10 mg/ml streptomycin sulfate in 0.85% saline) (GIBCO BRL). LOX (IMVI, human amelanotic melanoma) cells (provided by Dr. D. J. Dykes, Southern Research Institute, Birmingham, Ala.) were subcultured in RPMI 1640 medium (RPMI) (GIBCO BRL) supplemented with 10% FBS and 1% penicillin-streptomycin liquid. HRCC-SN12A1 (human renal cell carcinoma) cells (established from the ascitic cells of intrarenally transplanted HRCC-bearing nude mouse and provided by Dr. I. J. Fidler, M.D., Anderson Cancer Center, Houston, Tex.)(Naito, etal., 1986) were subcultured in Eagle minimum essential medium (MEM) (GIBCO BRL), supplemented with 10% FBS, vitamins, L-glutamine, sodium pyruvate, non-essential amino acids and 1% penicillin-streptomycin liquid. All cells were negative for mycoplasma infection as determined by a DNA stain (McGarrity, Methods in Enzymology: Cell Culture, Vol 63, p23 (Academic Press, San Diego; 1979); Freshney, Culture of Animal Cells: A Manual of Basic Techniques (Wiley-Liss, NY; 1987).
Twenty-four hours after plating (1×10^5 cells into 6-well cell culture dishes), the cells growing in monolayer were gently washed once with 5 ml serum-free D-MEM, RPMI and MEM medium for HeLa S3, LOX and HRCC-SN12A1 cells, respectively. Freshly prepared serum-free mediumcontaining 10 μg/ml cationic lipid (DOTMA); Chiang, et al., J. Biol. Chem., 266:18162 (1991); Bennett, et al., J. Liposome Research, in press (1992); were mixed with oligonucleotide and preincubated at 37° C. in a humidified incubator for 15 minutes to allow formation of an oligonucleotide-cationic lipid complex. The oligonucleotide concentrations were between 0.001 and 10 μM, but for the majority of the experiments for HeLa S3 cells 0.1 μM, for LOX cells 0.03-0.05-0.1 μM, and for HRCC cells 0.1 μM concentrations were used. […]
The effect of oligonucleotides on cell growth was determined by counting the attached cells in the 6-well plates through a phase contrast inverted microscope (Nikon Diaphot, 10×objective, 10×ocular, 4×magnification extender, total magnification: 400×). The attached cells on 10 randomly chosen fields were counted (10-200 cells/field) and the total cell number was calculated by multiplying the mean cell number by the correction factor (f6-well =6028, f24-well =1258, f10 cm dish =35,670). […] The dead floating cells (viability was determined by […]) were not counted. The cell number in each well was determined before treatment, immediately after treatment, and daily after treatment for 5-7 days. […]

[7] = test system: human tumor cells (HeLa, LOX, SN12A1); assay type: cell-based; conditions: 0.1 and 1 μM oligonucleotide + 10 μg/ml DOTMA 4 h; for inhibition of the tumors (in words): FIG. 2 panels A-C
[8] = test system: HRCC-SN12A1 cells (human renal cell carcinoma); experiment: Cell growth of HRCC-SN12A1 cells by counting attached cells after oligonucleotide treatment; assay type: cell-based
Description: as §2, with “HRCC-SN12A1 (human renal cell carcinoma) cells (established from the ascitic cells of intrarenally transplanted HRCC-bearing nude mouse and provided by Dr. I. J. Fidler, M.D., Anderson Cancer Center, Houston, Tex.)(Naito, etal., 1986) were subcultured in Eagle minimum essential medium (MEM) (GIBCO BRL), supplemented with 10% FBS, vitamins, L-glutamine, sodium pyruvate, non-essential amino acids and 1% penicillin-streptomycin liquid.” left out, “1987). […]” for “1987).”
The effect of oligonucleotides on cell growth was determined by counting the attached cells in the 6-well plates through a phase contrast inverted microscope (Nikon Diaphot, 10×objective, 10×ocular, 4×magnification extender, total magnification: 400×). The attached cells on 10 randomly chosen fields were counted (10-200 cells/field) and the total cell number was calculated by multiplying the mean cell number by the correction factor (f6-well =6028, f24-well =1258, f10 cm dish =35,670). […]

[9] = 32P-labeled phosphorothioate oligonucleotide
[10] = two days after treatment, DOTMA 4 h serum-free

## CACCCGCCTT GGCCTCCCAC (antisense CACCCGCCTTGGCCTCCCAC; chemistry not given here) [SEQ ID NO: 9, p120 antisense oligonucleotide, 3' UTR]
[1]
  cell growth inhibitory effect: 87.6±11.3%
[1]; HeLa cells, 0.1 μM + DOTMA, two 4 h treatments on days 1 and 3
  effect of repeated treatment: additive effects
[1]; HeLa cells
  log HeLa cell kill: 0.7 log
  inhibition of cell growth (in words): most consistent and greatest inhibition of cell growth; also recorded: inhibitory activity
[1]; HeLa cells, DOTMA-mediated treatment in complete (10% FBS) medium, compared to serum-free (FIG. 1C)
  inhibition of cell growth in complete medium: very slight
[1]; HeLa cells, oligonucleotide + DOTMA 4 h serum-free, two days after treatment (FIG. 4), read-out: IC50, inhibition of cell growth
  IC50: 20 nM
[2]; 0.65 mg/kg bodyweight i.p. days 1, 3, 5
  inhibition of cell growth in vivo: 80%
[2]; 6.5 mg/kg bodyweight i.p. days 1, 3, 5
  inhibition of cell growth in vivo: 90%
[2]; i.p. days 1, 3, 5
  IC50, tumor growth inhibition in vivo: 0.26 mg/kg bodyweight
[3]; [9]
  oligonucleotide associated with the cells, presence versus absence of DOTMA: 5-15 fold
  time of treatment to plateau of cellular uptake: 1 h
[3]; 20 hours post-treatment
  oligonucleotide remaining in the cells: approximately 50%
[3]; after 4 hours treatment in the presence of DOTMA
  oligonucleotide localized to the nuclei: 60%
[4]
  degradation: 40%
[5]
  decrease of cell growth: 70-80%
[5]; at 8 to 72 hours post-treatment
  decrease of mitotic cells: 70%
[5]; at 4 hours
  decrease of mitotic cells: 50%
[6]; 0.05 μM + DOTMA, one 4 h treatment day 1 after seeding
  log cell kill, single treatment: 1.4 log
[6]; 0.05 μM + DOTMA, two 4 h treatments on days 1 and 3
  effect of repeated treatment: killed most LOX cells and no recovery was found on day 8
[6]; oligonucleotide + DOTMA 4 h serum-free, two days after treatment (FIG. 4), read-out: IC50, inhibition of cell growth
  IC50: 10 nM
[6]; [10]
  log cell kill: 1.2 log
[7]
  inhibition of the tumors (in words): marked inhibition
[7]; especially 3-4 days after treatment
  log-cell kill: 0.5 to 1.5 log
[8]; 4 days after treatment
  maximum cytocidal effect (log cell kill): 1.3 log
[8]; [10]
  log cell kill: 0.7 log

## CACGCCTCCC GACTCTGCCC (DNA CACGCCTCCCGACTCTGCCC; chemistry not given here) [SEQ ID NO: 15, reference compound]
[1]; HeLa cells
  log HeLa cell kill: 0.2 log

## TCCCAGTCCC ACCTCCCATC (antisense TCCCAGTCCCACCTCCCATC; chemistry not given here) [SEQ ID NO: 6, p120 antisense oligonucleotide, 3' UTR]
[1]
  cell growth inhibitory effect: 70.7±24.8%

## CACCCGCCTT GGCCTCCCAG (antisense CACCCGCCTTGGCCTCCCAG; chemistry not given here) [SEQ ID NO: 14, p120 antisense oligonucleotide, 3' UTR]
[1]; HeLa cells
  inhibition of cell growth (in words): inhibitory activity
[7]
  inhibition of the tumors (in words): marked inhibition

## GTGGGAGGCC AAGGCGGGTG (sense GTGGGAGGCCAAGGCGGGTG; chemistry not given here) [SEQ ID NO: 16, reference compound]
[1]; HeLa cells
  inhibition of cell growth (in words): No inhibitory effect
